Measurements from patent EP1980561B1, “Substituted 1h-pyrazolo[3,4-b] pyridine derivatives active as kinase inhibitors” (NERVIANO MEDICAL SCIENCES S.R.L., priority 2007, dated 2008).
Where two headings read alike, the source gives them in different places.

How the values were obtained:
AKT1 [1] = biological target: T1, AKT1 (Homo sapiens, UniProt P31749); test: FABS-NMR screening (3-FABS, 19F-labelled AKTide-like substrate) on AKT-1; format: biochemical; design: The active human Ser-Thr protein kinase AKT-1 Full Length was expressed as GST fusion protein; GST (cleaved yes); made in house; host or cells: insect cells; conditions: 25 nM protein, 30 µM substrate, 1.5 mM ATP; read-out: AKT1 IC50 FABS NMR assay
T1 sequence (P31749 whole entry, the tested form may be a part): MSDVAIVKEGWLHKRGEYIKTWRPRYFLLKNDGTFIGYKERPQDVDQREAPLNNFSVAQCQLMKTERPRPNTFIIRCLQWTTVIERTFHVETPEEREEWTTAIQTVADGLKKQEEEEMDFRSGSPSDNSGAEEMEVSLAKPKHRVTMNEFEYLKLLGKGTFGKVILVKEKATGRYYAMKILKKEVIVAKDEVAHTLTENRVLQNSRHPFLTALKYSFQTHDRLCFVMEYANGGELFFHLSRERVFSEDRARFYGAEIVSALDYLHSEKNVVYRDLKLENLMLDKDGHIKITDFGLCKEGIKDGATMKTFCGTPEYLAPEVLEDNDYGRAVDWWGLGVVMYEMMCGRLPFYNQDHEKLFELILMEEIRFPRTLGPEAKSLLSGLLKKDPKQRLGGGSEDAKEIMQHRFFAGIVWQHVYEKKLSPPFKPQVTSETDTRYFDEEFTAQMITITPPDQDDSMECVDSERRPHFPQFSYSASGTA
Description: (§1) The biochemical functional NMR screening on the proteins kinase AKT-1 and PKA was performed using the 3-FABS (3-Fluorine Atoms for Biochemical Screening) technique developed by C. Dalvit and the NMR group in house (C. Dalvit et al 2003 J. Am. Chem. Soc. 125 (47): 14620).
(§2) The method require the use of a ^19F-labelled substrate. The same commercial peptide was used as substrate in both enzymatic reaction: the Tyr just before the phosphorilation site in the AKTide peptide was mutated in a 3-tryfluormethyl-Phe by Bachem.
(§3) The AKTide like peptide sequence is reported below: • H-Ala-Arg-Lys-Arg-Glu-Arg-Ala-Phe(3-CF3)-Ser-Phe-Gly-His-His-Ala-OH
The active human Ser-Thr protein kinase AKT-1 Full Length was expressed as GST fusion protein in insect cells and then the GST was cleaved with PreScission protease.
(§4) Reactions were performed in an end point format in eppendorf of 0.5 ml using the buffer solution 50mM Tris, pH 7.5, 5mM MgCl2, 1mM DTT, 8% D2O and 0.001% Triton-X-100; the final volume was of 560 µl. […] The spectra were recorded using the Varian Inova 600 MHz NMR spectrometer operating at a ^19F Larmor frequency of 564 MHz and using a 5mm probe with the inner coil tuned to ^19F and the outer coil tuned to H. The data were recorded without proton decoupling with a spectral width of 12000 Hz, an acquisition time of 0.8s and a relaxation delay of 2.8s. […]

AKT1 [2] = biological target: T1, AKT1; test: Biochemical assay for inhibitors of AKT1 kinase activity (33P trans-phosphorylation, Dowex resin); design: GST (N); made in house; conditions: 5 nM enzyme, 132 microM ATP, 30 microM peptide substrate, 60 minutes at room temperature
Description: (§5) The N-terminal GST fusion proteins used for the assays were prepared according to the methods described in Kumar, C. C. Biochem. Biophys. ACTA 2001, 1526, 257-268, and in Alessi, D. R.. Biochem. J. 1998 331, 299-308.
The inhibitory activity of putative kinase inhibitors and the potency of selected compounds were determined using a trans-phosphorylation assay.
A specific substrate was incubated with the kinase in appropriate buffer conditions in the presence of ATP traced with ^33P-γ-ATP (gamma phosphate-labeled, Redivue™
Code Number AH9968, 1000-3000Ci/mmole, Amersham Biosciences Piscataway, NJ, USA), optimal cofactors and test compound.
At the end of the phosphorylation reaction, more than 98% cold and radioactive ATP were captured by an excess of Dowex ion exchange resin. The resin was allowed to settle to the bottom of reaction wells by gravity. Supernatant, containing substrate peptide, was subsequently withdrawn and transferred into a counting plate, and radioactivity (corresponding to phosphate incorporated into peptide) was evaluated by β-counting.
Kinase buffer was composed of 50 mM TRIS pH 7.5 containing10 mM MgCl2, 1 mM DTT, 3 microM Na3VO4, and 0.2 mg/mL BSA. 3X KB is buffer of the same composition and pH as KB, but with three times the concentration of each component. […]

AKT3 = AKT3 (Homo sapiens, UniProt Q9Y243); test: Biochemical assay for inhibitors of AKT3 kinase activity (33P trans-phosphorylation, Dowex resin)
Sequence of AKT3 (Q9Y243 2-479): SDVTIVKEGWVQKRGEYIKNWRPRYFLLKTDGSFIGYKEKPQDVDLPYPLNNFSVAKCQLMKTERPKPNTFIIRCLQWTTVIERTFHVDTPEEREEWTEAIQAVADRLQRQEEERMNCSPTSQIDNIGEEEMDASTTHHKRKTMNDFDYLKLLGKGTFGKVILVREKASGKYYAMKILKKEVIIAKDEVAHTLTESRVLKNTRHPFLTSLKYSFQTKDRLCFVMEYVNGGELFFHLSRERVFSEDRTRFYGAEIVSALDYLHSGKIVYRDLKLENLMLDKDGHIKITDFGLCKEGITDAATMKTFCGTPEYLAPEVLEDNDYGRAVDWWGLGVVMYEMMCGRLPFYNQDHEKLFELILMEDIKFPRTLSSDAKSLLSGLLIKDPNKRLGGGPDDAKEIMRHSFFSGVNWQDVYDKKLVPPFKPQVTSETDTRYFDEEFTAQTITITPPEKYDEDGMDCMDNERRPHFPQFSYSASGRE
Description: The N-terminal GST fusion proteins used for the assays were prepared according to the methods described in Kumar, C. C. Biochem. Biophys. ACTA 2001, 1526, 257-268, and in Alessi, D. R.. Biochem. J. 1998 331, 299-308. The in vitro kinase inhibition assay was conducted in the same way as described for AKT1. The kinase assay was run with a final enzyme concentration of 1 nM, in the presence of 180 microM ATP, 0.88 nM ^33P-γ-ATP and 28.5 microM substrate, a carboxy-terminally biotinylated peptide of the following sequence: ARKRERTYSFGHHA-biotin. The peptide was obtained in batches of >95% peptide purity from PRIMM labs Inc. (Boston MA, USA).

AKT2 = biological target: T2, AKT2 (Homo sapiens, UniProt P31751); test: Biochemical assay for inhibitors of AKT2 kinase activity (33P trans-phosphorylation, Dowex resin); conditions: 10 nM enzyme, 396 microM ATP, 8.5 microM peptide substrate
T2 construct: GST (N); made in house
T2 sequence (P31751 whole entry, species assumed): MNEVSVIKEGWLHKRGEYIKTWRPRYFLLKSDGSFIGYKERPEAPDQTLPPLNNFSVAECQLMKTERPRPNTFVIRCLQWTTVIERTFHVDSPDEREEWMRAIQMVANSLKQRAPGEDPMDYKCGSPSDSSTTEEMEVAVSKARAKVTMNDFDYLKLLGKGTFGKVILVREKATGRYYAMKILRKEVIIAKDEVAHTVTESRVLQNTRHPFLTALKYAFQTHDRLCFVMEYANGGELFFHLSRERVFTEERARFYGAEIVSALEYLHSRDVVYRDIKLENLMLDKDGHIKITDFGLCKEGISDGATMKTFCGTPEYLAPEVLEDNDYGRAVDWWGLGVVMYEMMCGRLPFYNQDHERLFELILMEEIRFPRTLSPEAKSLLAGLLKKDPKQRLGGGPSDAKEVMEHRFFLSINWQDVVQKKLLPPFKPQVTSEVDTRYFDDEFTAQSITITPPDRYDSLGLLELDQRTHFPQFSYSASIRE
Description: as §5
The in vitro kinase inhibition assay was conducted in the same way as described for AKT1. The kinase assay was run with a final enzyme concentration of 10 nM, in the presence of 396 microM ATP, 0.88 nM ^33P-γ-ATP and 8.5 microM substrate, a carboxy-terminally biotinylated peptide of the following sequence:
ARKRERTYSFGHHA-biotin. The peptide was obtained in batches of >95% peptide purity from PRIMM labs Inc. (Boston MA, USA).

PKAα = biological target: T3, PKAα (Homo sapiens, UniProt P17612); test: FABS-NMR screening (3-FABS, 19F-labelled AKTide-like substrate) on PKA; format: biochemical; conditions: 25 nM protein, 30 µM substrate, 150 µM ATP
T3 construct: polyHis; made in house; host or cells: E. coli
Description: as §1, §2, §3
The active cycled AMP-dependent human protein kinase A PKA was expressed as polyHis-tag protein in E.Coli and purified by affinity column.
as §4

[3] = test system: S6 ribosomal protein phosphorylation (Ser235/236) in MCF-7 cells; test: Inhibition of AKT induced S6 ribosomal protein phosphorylation in MCF7 (immunofluorescence, ArrayScan); format: cell-based; conditions: Homo sapiens, compound treatment for 4 hour at 37°C, read-out: S6 phosphorylation (Ser235/236) in MCF7-cell IC50
Description: MCF-7 cells (ATCC# HTB-22) were seeded in 96-well poly-lysine coated clear- and flat-bottomed black plates (Matrix Technologies Inc., Hudson, NH, USA), in E-MEM medium (MEM+ Earle's BSS + 2 mM glutamine + 0.1 mM non-essential amino acids) containing 10% of FCS at a density of 7000 cells/well, and incubated overnight at 37°C, 5% CO2, 100% relative humidity. After this incubation, cells were treated with increasing compound doses for 4 hour at 37°C. Afterwards, cells were fixed with PBS/3.7% paraformaldehyde for 15 min at room temperature, wash twice with 200 µl/well D-PBS and permeabilize with a D-PBS solution containing 0.1% Triton X-100 (Sigma-Aldrich, St. Louis, MO, USA) and 0.1% powder Milk for 15 minutes (staining solution). […] Fluorescence images in the DAPI and Cy5™ channels were automatically acquired, stored and analysed using a Cellomics ArrayScan™ IV instrument (Cellomics, Pittsburgh, USA); the Cellomics Cytotoxicity Algorithm was used to quantify cytoplasmic fluorescence associated with phospho-S6 (Cy5™ signal parameter: "Mean Lyso Mass-pH") for each cell in 10 fields/well, and eventually expressed as a mean population value. […]

| IC50 (AKT3; 1 nM enzyme, 180 microM ATP, 28.5 microM peptide substrate, read-out: AKT3 IC50 Biochemical assay) | SMILES | IC50 (AKT1 [1]) | IC50 (AKT1 [2]) | IC50 (AKT3) | IC50 (AKT2) | IC50 (PKAα) | IC50 [3] |
| --- | --- | --- | --- | --- | --- | --- | --- |
|  | NC[C@H](Cc1ccccc1)NC(=O)/C=C/c1n[nH]c2ncccc12 [Compound 1, (E)-N-((S)-2-amino-1benzyl-ethyl)-3-(1H-pyrazolo[3,4-b]pyridin-3-yl)acrylamide tris(trifluoroacetate)] | 62 nM | 17 nM | 19 nM | 92 nM | 25 nM | 1350 nM |
| 108 nM | CN1CCN(C[C@@H](NC(=O)/C(=C/c2n[nH]c3ncccc23)c2cn(C)c3ccc(Br)cc23)c2ccccc2)CC1 [Compound 10, (2E)-2-(5-bromo-1-methyl-1H-indol-3-yl)-N-[(1S)-2-(4-methylpiperazin-1-yl)-1-phenylethyl]-3-(1H-pyrazolo[3,4-b]pyridin-3-yl)acrylamide] | 62 nM | 149 nM |  | 786 nM | 1900 nM | 16000 nM |
